Laboratory results published in patent publication US20230018245A1, “Skin Whitening Composition Containing Dihydro-5-Methylfuran-2(3h)-One Derivative” (Epi Biotech Co., Ltd., priority 2019, published 2023).
No end group written: not given here.

Tests used:
[1] = target: T1, tyrosinase extracted from B16 melanoma cells (Mus musculus, UniProt P11344); assay: Inhibition of tyrosinase activity, L-DOPA oxidation (Example 5); format: biochemical; settings: tyrosinase and L-DOPA, 37° C., 1 hour, absorbance 475 nm; vs positive control treated with tyrosinase and L-DOPA; FIG. 7
T1 construct: tyrosinase was extracted from B16 melanoma cells and used as an enzyme source; endogenous in cells; host or cells: B16 melanoma cells stimulated with alpha-MSH; cell extract
T1 sequence (P11344 19-533): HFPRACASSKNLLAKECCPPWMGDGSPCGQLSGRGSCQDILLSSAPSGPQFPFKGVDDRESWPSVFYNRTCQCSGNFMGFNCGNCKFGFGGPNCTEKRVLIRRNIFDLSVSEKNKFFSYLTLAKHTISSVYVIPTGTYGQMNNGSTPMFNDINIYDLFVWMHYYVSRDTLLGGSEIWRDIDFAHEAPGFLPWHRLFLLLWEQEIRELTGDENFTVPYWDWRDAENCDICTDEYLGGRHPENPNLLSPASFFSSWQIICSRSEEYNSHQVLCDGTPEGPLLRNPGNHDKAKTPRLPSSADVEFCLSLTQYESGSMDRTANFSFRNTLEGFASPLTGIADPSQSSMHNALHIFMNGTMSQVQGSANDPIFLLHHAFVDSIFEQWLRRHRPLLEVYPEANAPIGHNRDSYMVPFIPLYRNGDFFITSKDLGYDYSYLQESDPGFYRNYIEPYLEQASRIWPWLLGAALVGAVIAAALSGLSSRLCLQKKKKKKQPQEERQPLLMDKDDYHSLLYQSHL
Description: B16 melanoma cells were aliquoted in a 100 mm culture dish at 2×10^5 cells/dish. After 24 hours, the medium from the 100 mm culture dish was removed and treated with DMEM medium containing 10% FBS and a stimulant (α-MSH). After 48 hours, tyrosinase was extracted from B16 melanoma cells and used as an enzyme source. Using the principle that tyrosinase oxidizes L-DOPA to DOPA chrome and DOPA chrome has absorbance at 475 nm, tyrosinase and L-DOPA were incubated at 37° C. for 1 hour and absorbance was measured at 475 nm at 2 minute intervals, so that the production amount of DOPA chrome according to time was measured. The amount of changing 1 nmole of L-DOPA per minute to DOPA chrome was defined as the amount of tyrosinase activity. The tyrosinase inhibitory effect of Compound 2 was evaluated by comparing the group treated with tyrosinase and L-DOPA in combination as a positive control and the group treated with tyrosinase, L-DOPA and Compound 2 in combination.

[2] = test system: B16 melanoma cells; assay: Melanogenesis inhibition upon single or combination treatment with hydroquinone (Example 3); format: cell-based
Description: Using B16 melanoma cells, melanogenesis inhibition and melanosome degradation effect were confirmed upon single or combination treatment with hydroquinone and the compound of the present invention.
B16 melanoma cells were treated alone or in combination with hydroquinone and/or a compound of the present invention for 2 hours under the following conditions.
(i) Compound 2: 1, 3, 10 μM single administration
(ii) Hydroquinone: 1, 3, 10 μM single administration
(iii) Compound 2 (1, 3, 10 μM)+Hydroquinone (5 μM)
Thereafter, α-MSH was treated at a concentration of 100 nM for 76 hours.
After 72 hours, absorbance was measured at 405 nm to quantify the amount of melanin released into the medium, and the inhibition rate was calculated and shown in FIG. 5.

[3] = test system: B16 melanoma cells; assay: Cytotoxicity of hydroquinone and Compound 2 by MTT assay (Example 4); format: cell-based; settings: treated alone, concentration of 10 μM or less; α-MSH 100 nM 76 hours; absorbance 590 nm; FIG. 6
Description: Using B16 melanoma cells, cytotoxicity was measured by MTT assay when hydroquinone and Compound 2 were treated alone or in combination.
200 μL of B16 melanoma cells were aliquoted in a 96-well plate to 2.7×10^3 cells/well, and then cultured at 37° C., 5% CO2 incubator for 24 hours. B16 melanoma cells were treated with hydroquinone and/or Compound 2 for 2 hours under the same conditions as in Example 3.
Thereafter, α-MSH was treated at a concentration of 100 nM for 76 hours, and absorbance was measured at 590 nm by MTT assay, and the results are shown in FIG. 6.

## OC[C@H]1O[C@@H](Oc2ccc(O)cc2)[C@H](O)[C@@H](O)[C@@H]1O [Arbutin]
[1]
  inhibition of tyrosinase activity: inhibited the activity of tyrosinase

## Oc1ccc(O)cc1 [hydroquinone, Benzene-1,4-diol]
[2]; Mus musculus, B16, single treatment, based on the amount of melanogenesis in the positive control group (α-MSH 100 nM)
  IC50: 7.7 µM
[2]; treated alone, 1, 3, 10 μM, α-MSH 100 nM, FIG. 5
  melanogenesis inhibition and melanosome degradation effect: dose-dependently increased
[3]
  cell viability / cytotoxicity (MTT assay): no cytotoxicity

## α-melanocyte stimulating hormone (SYSMEHFRWGKPV; ends and bridges not checked; UniProt P01189 138-150, looked up) [α-MSH, agonist that stimulates melanogenesis; used as the stimulant / positive control]
[2]; positive control treated with α-MSH 100 nM
  increase of the amount of melanin: 16.5 times
